Like-named read-outs stand apart in the source and are kept apart here. Each block holds one compound with its values, some of them ahead of it. Non-standard residues stand in square brackets, D forms with d. Residues, ends and D or L forms follow the SMILES beside them. Groups on a side chain read outwards from the residue. *: point of attachment. DOTA = O=C(O)CN1CCN(CC(=O)O)CCN(CC(=O)*)CCN(CC(=O)O)CC1; 2Nal = N[C@@H](Cc1ccc2ccccc2c1)C(=O)O; dNMeOrn = CN[C@H](CCCN)C(=O)O; 4Amb = NCc1ccc(C(=O)O)cc1
How the values were obtained:
CXCR4 [1] = biological target: T1, CXCR4 (Homo sapiens, UniProt P61073); assay: Competition binding assay vs [^68Ga]Pentixafor in PC3-CXCR4 cells; settings: for Hill Slope, Competitive Binding Experiment: vs [^68Ga]Pentixafor, value ± SD; for IC50: vs 100 nM [^68Ga]Pentixafor, PC3-CXCR4 cells, 60 min 37 °C
T1 construct: expressed in transfected cells; host or cells: PC3 (human prostate cancer) cells stably transduced with CXCR4
Method: PC3-CXCR4 cells were plated in 12-well plates at a density of 500,000 cells per well and incubated for 48 h at 37 °C/5% CO2. Prior to the binding assay the cells were incubated in fresh media and 370–555 kBq of [^68Ga]Pentixafor or [^18F]RPS-544 was added to each well. The corresponding concentration of [^68Ga]Pentixafor in each well was 100 nM, and the concentration of [^18F]RPS-544 was approximately 5 pM. Then non-radioactive ligands were added to give a final ligand concentration in the range 0.001–10,000 nM. A total of eight concentrations were studied, and each concentration was tested in triplicate. The cells were incubated for 60 min at 37 °C/5% CO2. The media was removed under suction, the cells were washed with cold PBS 1X and detached and transferred to tubes for counting in 1 M NaOH. The cells were counted in a Wizard^2 Gamma Counter (PerkinElmer, Waltham, MA, USA). Non-specific binding was subtracted, and the IC50 values were determined by assuming a simple competitive binding interaction and fitting the data to a sigmoidal Hill plot in Origin 9.0 (OriginLab, Northampton, MA, USA). Potencies are expressed as IC50 ± standard deviation (Supplemental Data, Figure S7).

[2] = Biodistribution in mice bearing bilateral PC3-WT/PC3-CXCR4 xenograft tumors; assay type: in vivo, BALB/c mice; settings: for tissue to tissue ratio at 2 h: 2 h p.i.
Method: (§1) All animal studies were approved by the Institutional Animal Care and Use Committee of Weill Cornell Medicine (Protocol Number: 2015-0066) and were undertaken in accordance with the guidelines set forth by the USPHS Policy on Humane Care and Use of Laboratory Animals. Animals were housed under standard conditions in approved facilities with 12 h light/dark cycles. Food and water was provided ad libitum throughout the course of the studies. Hairless 6-to-8-week old male BALB/c inbred athymic nude mice (Jackson Laboratory, Bar Harbor, ME, USA) were inoculated bilaterally with 0.2 mL of a 1:1 mixture of 10^7 PC3-CXCR4 cells in PBS and Matrigel (Corning, Tewksbury, MA, USA) subcutaneously in the left shoulder and 0.2 mL of a 1:1 mixture of 10^7 PC3-WT cells in PBS and Matrigel subcutaneously in the right shoulder. Imaging and biodistribution studies were performed three weeks post-implantation, when tumors were approximately 100–300 mm^3.
(§2) For the biodistribution studies, tumor-bearing animals (n = 5/compound/time point) were injected intravenously with 50–100 μL of a 9% v/v EtOH/saline solution containing approximately 1.1 MBq of the radioligand. […] The mice were euthanized at 1 or 2 h p.i. and tissues including blood, heart, lungs, liver, small intestine, large intestine, stomach (with contents), spleen, pancreas, kidneys, muscle, bone, PC3-WT tumors, PC3-CXCR4 tumors, and tail were collected. All organs were weighed and placed in test tubes for counting in a Wizard^2 Gamma Counter (PerkinElmer, Waltham, MA, USA). For comparison, 1% injected activity standards were prepared and counted along with the tissue samples. The tails were counted to correct for any dose extravasation. Activity in each tissue was corrected for decay and for injected activity and expressed as percent injected dose per gram of tissue (%ID/g) ± standard error.

[3] = tested on: PC3-CXCR4 xenograft tumors; assay: as above; assay type: in vivo, BALB/c mice
Method: as §1, §2

PC3-CXCR4 cells = assay: Cell-associated activity in PC3-CXCR4 cells; assay type: cell-based, human; settings: 1 h
Method: Maximum cell-associated activity was calculated by subtracting the cell uptake of the radioactive ligand at the highest non-radioactive ligand concentration of 10 µM (which we considered to be non-specific uptake/binding) from the cell uptake at the lowest non-radioactive ligand concentration of 10^−5 µM.

CXCR4 [4] = biological target: T1, CXCR4; assay: Saturation binding assay in PC3-CXCR4 cells; settings: for Kd: saturation binding, PC3-CXCR4 cells; for Hill Slope, Saturation Binding Experiment: value ± SD
Method: To determine the dissociation constants, saturation binding assays were performed in the PC3-CXCR4 cells. The cells were plated as described above, and approximately 5 nM of the radioligand was added to each well. Then the corresponding non-radioactive ligand was added to give a final concentration in the range 0.001–10,000 nM. A total of eight concentrations were tested, and each concentration was tested in triplicate. The samples were washed and counted as described above. Non-specific binding was subtracted, and Kd values were determined by performing a nonlinear one site binding curve fit with equation y = (Bmax · x)/(Kd + x). Values are expressed as Kd ± standard deviation (Supplemental Data, Figure S8).

[5] = 1 h p.i., blocked by co-injection of 5 mg/kg AMD-3100

T1 sequence (P61073 whole entry): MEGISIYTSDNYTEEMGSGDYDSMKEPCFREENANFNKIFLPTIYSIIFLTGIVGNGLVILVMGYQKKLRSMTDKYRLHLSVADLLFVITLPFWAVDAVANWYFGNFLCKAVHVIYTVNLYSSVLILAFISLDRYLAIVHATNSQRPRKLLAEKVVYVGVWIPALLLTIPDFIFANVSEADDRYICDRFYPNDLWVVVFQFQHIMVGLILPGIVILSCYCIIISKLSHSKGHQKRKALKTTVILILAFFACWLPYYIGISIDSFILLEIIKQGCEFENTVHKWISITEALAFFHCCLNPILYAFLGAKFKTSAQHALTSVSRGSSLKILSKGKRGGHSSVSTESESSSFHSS

- Hill Slope, Competitive Binding Experiment (CXCR4 [1]): 1.01 ± 0.30
SMILES: c1ccc(CNCc2ccc(CN3CCCNCCNCCCNCC3)cc2)nc1 [AMD-3465, reference compound]

- tissue to tissue ratio at 1 h ([2]; male, BALB/c athymic nude, mouse, PC3-CXCR4 tumor and PC3-WT tumor, iv, total radioactivity, 1 h p.i., read-out: PC3-CXCR4 Tumor-to-Tissue Ratio PC3-WT): 2 ± 0.2
- tissue to tissue ratio at 2 h ([2]; male, BALB/c athymic nude, mouse, PC3-CXCR4 tumor and PC3-WT tumor, iv, total radioactivity, read-out: PC3-CXCR4 Tumor-to-Tissue Ratio PC3-WT): 2.8 ± 0.1
- tissue to tissue ratio at 1 h ([2]; male, BALB/c athymic nude, mouse, PC3-CXCR4 tumor and blood, iv, total radioactivity, 1 h p.i., read-out: PC3-CXCR4 Tumor-to-Tissue Ratio Blood): 11.4 ± 0.2
- tissue to tissue ratio at 2 h ([2]; male, BALB/c athymic nude, mouse, PC3-CXCR4 tumor and blood, iv, total radioactivity, read-out: PC3-CXCR4 Tumor-to-Tissue Ratio Blood): 31.1 ± 0.1
- tissue to tissue ratio at 1 h ([2]; male, BALB/c athymic nude, mouse, PC3-CXCR4 tumor and bone, iv, total radioactivity, 1 h p.i., read-out: PC3-CXCR4 Tumor-to-Tissue Ratio Bone): 28.7 ± 0.2
- tissue to tissue ratio at 2 h ([2]; male, BALB/c athymic nude, mouse, PC3-CXCR4 tumor and bone, iv, total radioactivity, read-out: PC3-CXCR4 Tumor-to-Tissue Ratio Bone): 47.2 ± 0.1
- tissue to tissue ratio at 1 h ([2]; male, BALB/c athymic nude, mouse, PC3-CXCR4 tumor and kidneys, iv, total radioactivity, 1 h p.i., read-out: PC3-CXCR4 Tumor-to-Tissue Ratio Kidneys): 4 ± 0.2
- tissue to tissue ratio at 2 h ([2]; male, BALB/c athymic nude, mouse, PC3-CXCR4 tumor and kidneys, iv, total radioactivity, read-out: PC3-CXCR4 Tumor-to-Tissue Ratio Kidneys): 5.3 ± 0.1
- tissue to tissue ratio at 1 h ([2]; male, BALB/c athymic nude, mouse, PC3-CXCR4 tumor and liver, iv, total radioactivity, 1 h p.i., read-out: PC3-CXCR4 Tumor-to-Tissue Ratio Liver): 10.8 ± 0.2
- tissue to tissue ratio at 2 h ([2]; male, BALB/c athymic nude, mouse, PC3-CXCR4 tumor and liver, iv, total radioactivity, read-out: PC3-CXCR4 Tumor-to-Tissue Ratio Liver): 10.8 ± 0.1
- tissue to tissue ratio at 1 h ([2]; male, BALB/c athymic nude, mouse, PC3-CXCR4 tumor and lungs, iv, total radioactivity, 1 h p.i., read-out: PC3-CXCR4 Tumor-to-Tissue Ratio Lungs): 11.8 ± 0.2
- tissue to tissue ratio at 2 h ([2]; male, BALB/c athymic nude, mouse, PC3-CXCR4 tumor and lungs, iv, total radioactivity, read-out: PC3-CXCR4 Tumor-to-Tissue Ratio Lungs): 17.1 ± 0.1
- tissue to tissue ratio at 1 h ([2]; male, BALB/c athymic nude, mouse, PC3-CXCR4 tumor and muscle, iv, total radioactivity, 1 h p.i., read-out: PC3-CXCR4 Tumor-to-Tissue Ratio Muscle): 56.1 ± 0.2
- tissue to tissue ratio at 2 h ([2]; male, BALB/c athymic nude, mouse, PC3-CXCR4 tumor and muscle, iv, total radioactivity, read-out: PC3-CXCR4 Tumor-to-Tissue Ratio Muscle): 101.2 ± 0.1
- tissue uptake at 1 h ([2]; male, BALB/c athymic nude, mouse, PC3-CXCR4 tumor, iv, total radioactivity, 1 h p.i., read-out: Maximum PC3-CXCR4 tumor activity): 14.6 ± 2.7 %ID/g
- PC3-CXCR4 Tumor-to-Tissue Ratio Blood ([3]; 2 h p.i.): 32.1 ± 0.1
- PC3-CXCR4 ratio to all normal tissue except kidneys ([3]; 2 h p.i.): greater than 10
SMILES: CN1C(=O)[C@@H](Cc2ccc(O)cc2)NC(=O)CNC(=O)[C@H](Cc2ccc3ccccc3c2)NC(=O)[C@H](CCCNC(=N)N)NC(=O)[C@H]1CCCNC(=O)c1ccc(CNC(=O)CN2CCN(CC(=O)O)CCN(CC(=O)O)CCN(CC(=O)O)CC2)cc1 (68Ga complex, metal not drawn) [Pentixafor, reference compound] (cyclo([dY][dNMeOrn]([4Amb-DOTA])R[2Nal]G))

- Kd (CXCR4 [4]): 0.314 ± 0.048 µM
- Hill Slope, Saturation Binding Experiment (CXCR4 [4]): 0.93 ± 0.14
- IC50 (CXCR4 [1]): 0.515 ± 0.068 µM
- Hill Slope, Competitive Binding Experiment (CXCR4 [1]): 1.18 ± 0.07
- Blood tissue activity ([2]; 1 h p.i.): 0.21±0.07 %ID/g
- Blood tissue activity [2, 5]: 0.27±0.06 %ID/g
- Bone tissue activity ([3]; 1 h p.i.): 0.64±0.14 %ID/g
- Heart tissue activity ([3]; 1 h p.i.): 0.13±0.03 %ID/g
- Kidneys tissue activity ([3]; 1 h p.i.): 7.23 ± 2.66 %ID/g
- Large Intestine tissue activity ([3]; 1 h p.i.): 0.43±0.10 %ID/g
- Liver tissue activity ([3]; 1 h p.i.): 4.36±0.24 %ID/g
- Lungs tissue activity ([3]; 1 h p.i.): 0.50±0.04 %ID/g
- Muscle tissue activity ([3]; 1 h p.i.): 0.15±0.04 %ID/g
- PC3-CXCR4 Tumor Uptake ([3]; 1 h p.i.): 2.52 ± 0.11 %ID/g
- PC3-CXCR4 Tumor-to-Tissue Ratio Blood ([3]; 1 h p.i.): 11.9 ± 0.1
- PC3-CXCR4 Tumor-to-Tissue Ratio Bone ([3]; 1 h p.i.): 4.0 ± 0.2
- PC3-CXCR4 Tumor-to-Tissue Ratio Kidneys ([3]; 1 h p.i.): 0.3 ± 0.3
- PC3-CXCR4 Tumor-to-Tissue Ratio Liver ([3]; 1 h p.i.): 0.6 ± 0.1
- PC3-CXCR4 Tumor-to-Tissue Ratio Lungs ([3]; 1 h p.i.): 5.0 ± 0.1
- PC3-CXCR4 Tumor-to-Tissue Ratio Muscle ([3]; 1 h p.i.): 16.7 ± 0.1
- PC3-CXCR4 Tumor-to-Tissue Ratio PC3-WT ([3]; 1 h p.i.): 2.5 ± 0.3
- PC3-WT tumor activity ([3]; 1 h p.i.): 1.00±0.23 %ID/g
- Pancreas tissue activity ([3]; 1 h p.i.): 0.26±0.05 %ID/g
- Small Intestine tissue activity ([3]; 1 h p.i.): 0.54±0.06 %ID/g
- Spleen tissue activity ([3]; 1 h p.i.): 0.92±0.08 %ID/g
- Stomach tissue activity ([3]; 1 h p.i.): 0.14±0.07 %ID/g
- Bone tissue activity [3, 5]: 0.31±0.07 %ID/g
- Heart tissue activity [3, 5]: 0.18±0.08 %ID/g
- Kidneys tissue activity [3, 5]: 4.41±1.01 %ID/g
- Large Intestine tissue activity [3, 5]: 0.22±0.03 %ID/g
- Liver tissue activity [3, 5]: 3.15±0.70 %ID/g
- Lungs tissue activity [3, 5]: 0.49±0.09 %ID/g
- Muscle tissue activity [3, 5]: 0.45±0.67 %ID/g
- PC3-CXCR4 tumor activity [3, 5]: 1.20±0.43 %ID/g
- PC3-WT tumor activity [3, 5]: 0.85±0.21 %ID/g
- Pancreas tissue activity [3, 5]: 0.25±0.04 %ID/g
- Small Intestine tissue activity [3, 5]: 0.80±0.11 %ID/g
- Spleen tissue activity [3, 5]: 0.70±0.11 %ID/g
- Stomach tissue activity [3, 5]: 0.20±0.20 %ID/g
SMILES: FCCn1cc(CCNCc2ccc(CN3CCCNCCNCCCNCC3)cc2)nn1 [RPS-552]
- Cell-Associated Activity (PC3-CXCR4 cells): 3.5 ± 0.1 %IA

- Kd (CXCR4 [4]): ~1.7 µM
- Hill Slope, Saturation Binding Experiment (CXCR4 [4]): 0.98 ± 0.19
- IC50 (CXCR4 [1]): ~1.5 µM
- Hill Slope, Competitive Binding Experiment (CXCR4 [1]): 0.96 ± 0.10
SMILES: FCCn1cc(NCc2ccc(CN3CCCNCCNCCCNCC3)cc2)nn1 [RPS-546]
- Cell-Associated Activity (PC3-CXCR4 cells): 1.2 ± 0.1 %IA

— publication PMC6514812, “[^18F]Fluoroethyltriazolyl Monocyclam Derivatives as Imaging Probes for the Chemokine Receptor CXCR4” (Molecules, 2019)
